Assay results from patent US20230413857A1, “COMPOSITIONS OF MICROORGANISMS AND METHODS OF USING SAME” (The State of Israel, Ministry of Agriculture & Rural …, priority 2020, published 2023).

What was measured:
[1] = system: Achlya bisexualis; test: Paper disk in-vitro bioactivity assay on PDA plates; type: cell-based; settings: PDA plate
[2] = system: Pythium aphanidermatum; test: as above; type: cell-based; settings: PDA plate
[3] = system: S. parasitica mycelia; test: Compound bioassays of 8-Nonenoic acid in liquid and solid media; type: cell-based, Saprolegnia parasitica; settings: for Concentration giving full inhibition of S. parasitica growth: 19° C., 3 days
Experimental: The inhibition activity of the compound 8-Nonenoic acid was examined in both liquid and solid media. For liquid assay, a plug of PDA harboring the S. parasitica mycelia was introduced to 1 ml of sterile double distilled water (DDW) with 10 μl of potato dextrose broth (PDB) and varying concentrations of 8-Nonenoic acid (0, 0.1, 0.5, 1, 2.5, 5, 7.5, 10, 20 μg/ml) in 48 well plate and incubated at 19° C. for 3 days. For solid assay, a plug of PDA harboring the S. parasitica mycelia was introduced to 50 mm PDA petri plates with varying concentrations of 8-Nonenoic acid (as described above) and incubated at 19° C. for 3 days. For both liquid and solid, mycelium growth radios was measured and S. parasitica plugs viability were evaluated by transferring them to fresh PDB/PDA and observing the growth developed within 3 days. All experiments were performed in triplicates.

[4] = system: Saprolegnia parasitica; test: 8-Nonenoic acid vs. Saprolegnia parasitica in Tilapia eggs bioassay test; type: in vivo, Tilapia (Oreochromis mossambicus) eggs; settings: S. parasitica plugs and 10 μg/ml, one week, 26° C.
Experimental: Tilapia (Oreochromis mossambicus) eggs, 3 days post fertilization, were collected from the hatchery at the department of fisheries in ARO the Volcani Center and brought to the lab. Eggs were rinsed with aquarium water. Eggs were introduced to 100 ml flasks (25 ml water in each flask), 6 eggs for each flask. Eggs were introduced with Saprolegnia parasitica plugs in the flask or with Saprolegnia parasitica plugs and 10 μg/ml 8-Nonenoic acid. Control eggs were not treated and/or supplemented. Flasks were incubated on a shaker under controlled conditions: 26° C., 95 rpm, and day light for a week.

[5] = system: Phytophthora infestans; type: cell-based; settings: 200 μg on a paper disk, PDA plate
[6] = system: Aeromonas salmonicida; type: cell-based; settings: 200 μg
[7] = system: Streptococcus iniae; type: cell-based; settings: 200 μg
[8] = system: Photobacterium damselae; type: cell-based; settings: 200 μg

| Compound | Inhibition of the oomycote mycelium ([1]; 100 μg on a paper disk) | Inhibition of the oomycote mycelium ([2]; 100 μg on a paper disk) | Inhibition of S. parasitica growth ([3]; 0.1 g/ml in both water and agar) | Inhibition of S. parasitica growth ([3]; 0.5-2.5 μg/ml, agar phase) | Concentration at which the growth radius decreased ([3]; in agar) | Concentration giving full inhibition of S. parasitica growth ([3]; in agar (solid assay)) | Concentration giving full inhibition of S. parasitica growth ([3]; in water (liquid assay)) | Ability to inhibit S. parasitica growth (screen of compounds identified from ABp5) ([3]; purchased GC/MS-identified compounds, FIG. 13A) | Viability of fully inhibited S. parasitica plugs ([3]; transferred to a new plate) | Survival of Tilapia eggs [4] | Inhibition of the oomycete mycelium ([1]; 200 μg on a paper disk) | Inhibition of the oomycete mycelium ([2]; 200 μg on a paper disk) | Inhibition of the oomycete mycelium [5] | Inhibitory activity [6] | Inhibitory activity [7] | Inhibitory activity [8] |
| --- | --- | --- | --- | --- | --- | --- | --- | --- | --- | --- | --- | --- | --- | --- | --- | --- |
| C=CCCCCCCC(=O)O [8-Nonenoic acid] | showed inhibition | showed inhibition | No inhibition | no inhibition | ≥ 5 µg/mL | 20 µg/mL | 2.5 µg/mL | strong ability to inhibit | complete loss of viability | did survive | – | – | – | – | – | – |
| CC(C)(c1ccccc1)c1ccc(O)cc1 [4-Cumylphenol] | – | – | – | – | – | – | – | – | – | – | showed inhibition | showed inhibition | showed inhibition | showed inhibitory activity | showed inhibitory activity | showed inhibitory activity |
